According to PubChem BioAssay AID248 (DTP/NCI, 2004):
Inconclusive results and toxic doses are left out. Rule as the data show it: active = T/C of 150% or more; inactive = T/C below 125%.

System: L1210 leukemia ip in BDF1 mice, survival T/C
Experiment: NCI In Vivo Anticancer Drug Screen. Data for tumor model L1210 Leukemia (intraperitoneal) in B6D2F1 (BDF1) mice
Settings: endpoint: mean survival time, higher = longer survival
In short: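 Each compound was tested against a transplantable tumor grown in mice. The endpoint was survival, with treated animals benchmarked against vehicle controls as a simple ratio.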

[1] = dose: 100.0 mg/kg/injection, schedule: Q01DX001 (ip), vehicle: Klucel (hydroxypropylcellulose) (HPC)
[2] = dose: 100.0 mg/kg/injection, schedule: Q01DX009 (ip), vehicle: Klucel (hydroxypropylcellulose) (HPC)
[3] = dose: 200.0 mg/kg/injection, schedule: Q01DX001 (ip), vehicle: Klucel (hydroxypropylcellulose) (HPC)
[4] = dose: 200.0 mg/kg/injection, schedule: Q01DX009 (ip), vehicle: Klucel (hydroxypropylcellulose) (HPC)
[5] = dose: 400.0 mg/kg/injection, schedule: Q01DX001 (ip), vehicle: Klucel (hydroxypropylcellulose) (HPC)
[6] = dose: 400.0 mg/kg/injection, schedule: Q01DX009 (ip), vehicle: Klucel (hydroxypropylcellulose) (HPC)
[7] = dose: 100.0 mg/kg/injection, schedule: Q04DX003 (ip), vehicle: saline with Tween-80
[8] = dose: 200.0 mg/kg/injection, schedule: Q04DX003 (ip), vehicle: saline with Tween-80
[9] = dose: 400.0 mg/kg/injection, schedule: Q04DX003 (ip), vehicle: saline with Tween-80
[10] = dose: 200.0 mg/kg/injection, schedule: Q01DX001 (ip), vehicle: saline

Measured: T/C

O=C(c1ccccc1)C1OC1(CBr)c1ccccc1 (configuration not stated)
inactive: dose: 6.25 mg/kg/injection, schedule: Q01DX009 (ip), vehicle: alcohol 96 % of control | dose: 12.5 mg/kg/injection, schedule: Q01DX009 (ip), vehicle: alcohol 95 % of control | dose: 25.0 mg/kg/injection, schedule: Q01DX009 (ip), vehicle: alcohol 98 % of control | [1] 100 % of control | [2] 106 % of control | [3] 105 % of control | [4] 98 % of control | [5] 106 % of control | [6] 96 % of control

O=C(OCCCOC(=O)c1cccc([N+](=O)[O-])c1)c1cccc([N+](=O)[O-])c1
inactive: dose: 100.0 mg/kg/injection, schedule: Q01DX001 (ip), vehicle: other 101 % of control | dose: 200.0 mg/kg/injection, schedule: Q01DX001 (ip), vehicle: other 98 % of control | dose: 400.0 mg/kg/injection, schedule: Q01DX001 (ip), vehicle: other 102 % of control

CNC(=O)Nc1ccc(C(=O)OCC(C)C)cc1
inactive: [2] 104 % of control | [4] 115 % of control | [6] 104 % of control

O=C(O)Cc1c[nH]c(=O)[nH]c1=O
inactive: dose: 100.0 mg/kg/injection, schedule: Q01DX009 (ip), vehicle: saline with Tween-80 97 % of control | [7] 102 % of control | dose: 200.0 mg/kg/injection, schedule: Q01DX009 (ip), vehicle: saline with Tween-80 103 % of control | [8] 103 % of control | dose: 400.0 mg/kg/injection, schedule: Q01DX009 (ip), vehicle: saline with Tween-80 101 % of control | [9] 92 % of control

CCCCNC(=O)CS(=O)(=O)c1ccc(Cl)cc1
inactive: [7] 94 % of control | [8] 100 % of control | [9] 94 % of control

Cc1ccc(S(=O)(=O)/C(Cl)=C(/Cl)S(=O)(=O)c2ccc(C)cc2)cc1
inactive: dose: 3.12 mg/kg/injection, schedule: Q01DX009 (ip), vehicle: saline 95 % of control | dose: 6.25 mg/kg/injection, schedule: Q01DX009 (ip), vehicle: saline 97 % of control | dose: 6.25 mg/kg/injection, schedule: Q04DX003 (ip), vehicle: saline 88 % of control | dose: 12.5 mg/kg/injection, schedule: Q01DX001 (ip), vehicle: saline 94 % of control | dose: 12.5 mg/kg/injection, schedule: Q01DX009 (ip), vehicle: saline with Tween-80 95 % of control | dose: 12.5 mg/kg/injection, schedule: Q04DX003 (ip), vehicle: saline 92 % of control | dose: 25.0 mg/kg/injection, schedule: Q01DX001 (ip), vehicle: saline 92 % of control | dose: 25.0 mg/kg/injection, schedule: Q01DX009 (ip), vehicle: saline with Tween-80 89 % of control | [10] 103 % of control

O=C(CC1CCCCC1O)Nc1ccccc1 (configuration not stated)
inactive: dose: 50.0 mg/kg/injection, schedule: Q01DX001 (ip), vehicle: saline 97 % of control | dose: 100.0 mg/kg/injection, schedule: Q01DX001 (ip), vehicle: saline 95 % of control | [10] 101 % of control | dose: 400.0 mg/kg/injection, schedule: Q01DX001 (ip), vehicle: saline 97 % of control

O=C(c1ccccc1Br)N1CCN=C(c2ccccc2)C=C1c1ccccc1
inactive: dose: 100.0 mg/kg/injection, schedule: Q04DX003 (ip), vehicle: saline 93 % of control | dose: 200.0 mg/kg/injection, schedule: Q04DX003 (ip), vehicle: saline 94 % of control | dose: 400.0 mg/kg/injection, schedule: Q04DX003 (ip), vehicle: saline 100 % of control

CCCCCOP(=O)(OCCCCC)C(c1ccccc1)c1ccccc1
inactive: dose: 100.0 mg/kg/injection, schedule: Q04DX002 (ip), vehicle: saline 100 % of control | dose: 200.0 mg/kg/injection, schedule: Q04DX002 (ip), vehicle: saline 100 % of control | dose: 400.0 mg/kg/injection, schedule: Q04DX002 (ip), vehicle: saline 96 % of control

CCCCCCCCC(=O)CCCC
inactive: dose: 100.0 mg/kg/injection, schedule: Q01DX009 (ip), vehicle: saline 103 % of control | dose: 200.0 mg/kg/injection, schedule: Q01DX009 (ip), vehicle: saline 100 % of control | dose: 400.0 mg/kg/injection, schedule: Q01DX009 (ip), vehicle: saline 100 % of control

CC(C)(C)NC(=O)CCC1C2C=CC(C2)C1C(=O)NC(C)(C)C (configuration not stated)
inactive: [1] 97 % of control | dose: 100.0 mg/kg/injection, schedule: Q04DX003 (ip), vehicle: Klucel (hydroxypropylcellulose) (HPC) 101 % of control | [3] 92 % of control | dose: 200.0 mg/kg/injection, schedule: Q04DX003 (ip), vehicle: Klucel (hydroxypropylcellulose) (HPC) 97 % of control | [5] 98 % of control | dose: 400.0 mg/kg/injection, schedule: Q04DX003 (ip), vehicle: Klucel (hydroxypropylcellulose) (HPC) 107 % of control
